This is an account of results in ChEMBL document CHEMBL5113398, “Design and synthesis of new quinoline derivatives as selective C-RAF kinase inhibitors with potent anticancer activity” (Eur J Med Chem, 2022).

Data set [1] in a line: Apparent permeability across apical to basolateral side in human Caco-2 cells assessed as drug recovery at pH 6.5 to 7.4. Type of data set: ADME, cell-based. Conditions: Caco-2, pH 6.5, read-out: Drug recovery.
Data set [2] is described as follows: Apparent permeability of the compound from apical to basolateral side in human Caco-2 cells at pH 6.5 to 7.4. The format is ADME, cell-based. Conditions: Caco-2, pH 6.5. (In general: Caco-2 monolayers are a common model of the intestinal barrier.)
Data set [3] can be described thus: n-Octanol/PBS partition coefficient, logD of the compound at pH 7.4. The format is physicochemical.
Data set [4] can be described thus: Aqueous solubility of compound by HPLC analysis. The format is physicochemical.
In the next data set the test system is SK-OV-3. Nature of the data set: Anticancer activity against human SK-OV-3 cells assessed as cell growth inhibition incubated for 48 hrs by SRB assay. Type of data set: functional.
In a further data set the test system is COLO 205. Nature of the data set: Anticancer activity against human COLO 205 cells assessed as cell growth inhibition incubated for 48 hrs by SRB assay. Type of data set: functional. Background: Sulforhodamine B stains cellular protein and so reports cell mass.
The next data set concerns CCRF-CEM. Kind of data set: Anticancer activity against human CCRF-CEM cells assessed as cell growth inhibition incubated for 48 hrs by SRB assay. The format is functional.
In the next data set the test system is UO-31. Kind of data set: Anticancer activity against human UO-31 cells assessed as cell growth inhibition incubated for 48 hrs by SRB assay. The format is functional.
In the next data set the test system is SF-268. Nature of the data set: Anticancer activity against human SF-268 cells assessed as cell growth inhibition incubated for 48 hrs by SRB assay. The format is functional.
Data set [5] concerns UACC-257. Nature of the data set: Anticancer activity against human UACC-257 cells assessed as cell growth inhibition incubated for 48 hrs by SRB assay. The format is functional.
The next data set relates to MDA-MB-231. Kind of data set: Anticancer activity against human MDA-MB-231 cells assessed as cell growth inhibition incubated for 48 hrs by SRB assay. Type of data set: functional.
For another data set, the system named is MCF7. Kind of data set: Anticancer activity against human MCF7 cells assessed as cell growth inhibition incubated for 48 hrs by SRB assay. The format is functional.
Another data set relates to Malme-3M. Kind of data set: Anticancer activity against human Malme-3M cells assessed as cell growth inhibition incubated for 48 hrs by SRB assay. Type of data set: functional.
The test system of data set [6] is UACC-257. Kind of data set: Anticancer activity against human UACC-257 cells assessed as total cell growth inhibition incubated for 48 hrs by SRB assay. Type of data set: functional.
Another data set deals with SK-MEL-28. Kind of data set: Anticancer activity against human SK-MEL-28 cells assessed as cell growth inhibition incubated for 48 hrs by SRB assay. The format is functional.
Another data set has as its system A498. Nature of the data set: Anticancer activity against human A498 cells assessed as cell growth inhibition incubated for 48 hrs by SRB assay. The format is functional.
Data set [7] concerns ACHN. Nature of the data set: Anticancer activity against human ACHN cells assessed as cell growth inhibition incubated for 48 hrs by SRB assay. The format is functional.
For another data set, the system named is HOP-92. Nature of the data set: Anticancer activity against human HOP-92 cells assessed as total cell growth inhibition incubated for 48 hrs by SRB assay. Type of data set: functional.
A further data set relates to NCI-H522. Nature of the data set: Anticancer activity against human NCI-H522 cells assessed as cell growth inhibition incubated for 48 hrs by SRB assay. The format is functional.
Data set [8] is described as follows: Cytotoxicity against human WI-38 cells assessed as cell growth inhibition incubated for 48 hrs by SRB assay. Type of data set: toxicity, cell-based.
Another data set relates to EKVX. Kind of data set: Anticancer activity against human EKVX cells assessed as cell growth inhibition incubated for 48 hrs by SRB assay. Type of data set: functional.
Data set [9] has as its system IGROV-1. Nature of the data set: Anticancer activity against human IGROV-1 cells assessed as total cell growth inhibition incubated for 48 hrs by SRB assay. Type of data set: functional.
A further data set has as its system HCT-15. Nature of the data set: Anticancer activity against human HCT-15 cells assessed as cell growth inhibition incubated for 48 hrs by SRB assay. The format is functional.
Another data set has as its system M14. Nature of the data set: Anticancer activity against human M14 cells assessed as cell growth inhibition incubated for 48 hrs by SRB assay. Type of data set: functional.
The test system of the next data set is SK-MEL-2. Kind of data set: Anticancer activity against human SK-MEL-2 cells assessed as cell growth inhibition incubated for 48 hrs by SRB assay. Type of data set: functional.
The subject of the next data set is NCI-H226. Kind of data set: Anticancer activity against human NCI-H226 cells assessed as cell growth inhibition incubated for 48 hrs by SRB assay. The format is functional.
For another data set, the system named is MOLT-4. Kind of data set: Anticancer activity against human MOLT-4 cells assessed as total cell growth inhibition incubated for 48 hrs by SRB assay. The format is functional.
The next data set has as its system SN12C. Nature of the data set: Anticancer activity against human SN12C cells assessed as cell growth inhibition incubated for 48 hrs by SRB assay. The format is functional.
For data set [10], the system named is TK-10. Nature of the data set: Anticancer activity against human TK-10 cells assessed as cell growth inhibition incubated for 48 hrs by SRB assay. Type of data set: functional.
A further data set concerns NCI/ADR-RES. Kind of data set: Anticancer activity against human NCI/ADR-RES cells assessed as cell growth inhibition incubated for 48 hrs by SRB assay. Type of data set: functional.
Data set [11] concerns ACHN. Kind of data set: Anticancer activity against human ACHN cells assessed as total cell growth inhibition incubated for 48 hrs by SRB assay. The format is functional.
The next data set deals with NCI-H460. Kind of data set: Anticancer activity against human NCI-H460 cells assessed as cell growth inhibition incubated for 48 hrs by SRB assay. Type of data set: functional.
In data set [12] the test system is MDA-MB-468. Kind of data set: Anticancer activity against human MDA-MB-468 cells assessed as total cell growth inhibition incubated for 48 hrs by SRB assay. The format is functional.
In a further data set the test system is NCI-H322M. Nature of the data set: Anticancer activity against human NCI-H322M cells assessed as cell growth inhibition incubated for 48 hrs by SRB assay. Type of data set: functional.
The subject of the next data set is PC-3. Nature of the data set: Anticancer activity against human PC-3 cells assessed as cell growth inhibition incubated for 48 hrs by SRB assay. Type of data set: functional.
In data set [13] the test system is MDA-MB-468. Kind of data set: Anticancer activity against human MDA-MB-468 cells assessed as cell growth inhibition incubated for 48 hrs by SRB assay. The format is functional.
Another data set relates to HL-60. Kind of data set: Anticancer activity against human HL-60 cells assessed as total cell growth inhibition incubated for 48 hrs by SRB assay. Type of data set: functional.
The next data set concerns HOP-62. Nature of the data set: Anticancer activity against human HOP-62 cells assessed as cell growth inhibition incubated for 48 hrs by SRB assay. The format is functional.
The subject of data set [14] is TK-10. Kind of data set: Anticancer activity against human TK-10 cells assessed as total cell growth inhibition incubated for 48 hrs by SRB assay. Type of data set: functional.
The subject of data set [15] is NCI-H23. Nature of the data set: Anticancer activity against human NCI-H23 cells assessed as cell growth inhibition incubated for 48 hrs by SRB assay. The format is functional.
Data set [16] has as its system NCI-H23. Kind of data set: Anticancer activity against human NCI-H23 cells assessed as total cell growth inhibition incubated for 48 hrs by SRB assay. The format is functional.
A further data set relates to HT-29. Nature of the data set: Anticancer activity against human HT-29 cells assessed as cell growth inhibition incubated for 48 hrs by SRB assay. The format is functional.
For data set [17], the system named is IGROV-1. Kind of data set: Anticancer activity against human IGROV-1 cells assessed as cell growth inhibition incubated for 48 hrs by SRB assay. Type of data set: functional.
The test system of another data set is U-251. Kind of data set: Anticancer activity against human U-251 cells assessed as cell growth inhibition incubated for 48 hrs by SRB assay. The format is functional.
For a further data set, the system named is SW-620. Kind of data set: Anticancer activity against human SW-620 cells assessed as cell growth inhibition incubated for 48 hrs by SRB assay. The format is functional.

≈ marks a conversion by molar mass, not a printed value.

The Papp A→B is the apparent permeability from the apical to the basolateral side of a cell layer. For `COc1cc2c(c(OC)c1OC)-c1ccc(OC)c(=O)cc1[C@@H](NC(C)=O)CC2` [COLCHICINE], the recovery in [1] is 75.5%. Besides, the Papp A→B in [2] was 0.3 ×10⁻⁶ cm/s.

On to `CC(CCc1ccccc1)NCC(O)c1ccc(O)c(C(N)=O)c1` (stereo unspecified) [LABETALOL], for which the recovery in data set [1] turned out to be 91%. Besides, the Papp A→B in [2] was determined as 72 ×10⁻⁶ cm/s.

A word on the logD: it is lipophilicity at a set pH, counting ionised and neutral species. Low values mean a more hydrophilic compound, high ones a more lipophilic compound. In general, solubility refers to the concentration that dissolves in the medium under given conditions. Low readings indicate little dissolved substance, high ones much dissolved substance. As to `CO[C@H]1/C=C/O[C@@]2(C)Oc3c(C)c(O)c4c(O)c(c(/C=N/N5CCN(C)CC5)c(O)c4c3C2=O)NC(=O)/C(C)=C\C=C\[C@H](C)[C@H](O)[C@@H](C)[C@@H](O)[C@@H](C)[C@H](OC(C)=O)[C@@H]1C` [RIFAMPIN], in data set [3], the logD turned out to be 1.31. Besides, in data set [4], the solubility is 175 µM (≈ 144 µg/mL).

In [4], `COc1cc2cc(Oc3ccc(NC(=O)Nc4ccc(Cl)c(C(F)(F)F)c4)cc3)c(C)nc2cc1OCCN(C)C` gave a solubility of 114 µM (≈ 66.9 µg/mL).

On to `CCC(C)(C)C(=O)O[C@H]1C[C@@H](C)C=C2C=C[C@H](C)[C@H](CC[C@@H]3C[C@@H](O)CC(=O)O3)[C@H]21` [SIMVASTATIN], for which the logD in data set [3] is 4.45.

Take `O=C1NC(=O)C(c2ccccc2)(c2ccccc2)N1` [PHENYTOIN]: the concentration in solution in [4] (solubility) was 93.1 µM (≈ 23.5 µg/mL).

`COc1cc2cc(Oc3ccc(NC(=O)Nc4cc(C(F)(F)F)cc(C(F)(F)F)c4)cc3)c(C)nc2cc1OC` displayed a logD in data set [3] of 3.1. In data set [4], this compound showed a solubility of 212 µM (≈ 120 µg/mL).

On to `CNC(=C[N+](=O)[O-])NCCSCc1ccc(CN(C)C)o1` [RANITIDINE], for which the recovery in [1] came to 82%.

For orientation: GI50 means the concentration giving 50% growth inhibition. What is called TGI is the concentration at which net growth stops. Turning to `CNC(=O)c1cc(Oc2ccc(NC(=O)Nc3ccc(Cl)c(C(F)(F)F)c3)cc2)ccn1` [SORAFENIB], the GI50 was determined as 2.51 µM with SK-OV-3; 2 µM in the data set with COLO 205; 2 µM in the data set on CCRF-CEM; 2.51 µM with UO-31; 2.51 µM in the data set on SF-268; 2 µM with UACC-257 [5]. In addition, the GI50 in the data set on MDA-MB-231 was found to be 1.26 µM; in the data set on MCF7, 2.51 µM; in the data set on Malme-3M it was 2 µM; in the data set on SK-MEL-28 it was 2.51 µM; with A498, 2.51 µM; in the data set on ACHN [7], 2.51 µM. Moreover, the GI50 in the data set on NCI-H522 turned out to be 2 µM; with EKVX it was 2.51 µM; in the data set on HCT-15 it was 2.51 µM; in the data set with M14, 2 µM; in the data set on SK-MEL-2, 2 µM; in the data set with NCI-H226, 2 µM. Further, the GI50 in the data set on SN12C worked out at 2.51 µM; with TK-10 [10], 3.98 µM; in the data set with NCI/ADR-RES, 2.51 µM; with NCI-H460, 2.51 µM; with NCI-H322M, 2.51 µM; in the data set with PC-3, 2 µM. Moreover, the GI50 in the data set with MDA-MB-468 [13] came to 3.16 µM; with HOP-62 it was 2 µM; in the data set on NCI-H23 [15], 2 µM; with HT-29, 2 µM; in the data set with IGROV-1 [17] it was 2.51 µM; in the data set on U-251 it was 2 µM. In addition, the GI50 in the data set on SW-620 turned out to be 2.51 µM. For the same compound, the TGI in the data set with UACC-257 [6] was 5.01 µM; with HOP-92 it was 5.01 µM; with IGROV-1 [9], 10 µM; with MOLT-4 it was 100 µM; in the data set with ACHN [11], 10 µM; in the data set with MDA-MB-468 [12] it was 7.94 µM. The TGI with HL-60 worked out at 100 µM; with TK-10 [14], 10 µM; in the data set with NCI-H23 [16] it was 5.01 µM. Further, the logD in [3] came to 3.85. Further, the GI50 at 48 h in [8] was greater than 20 µM. Also, in data set [4], the concentration in solution (solubility) was 3.27 µM (≈ 1.52 µg/mL). The Papp A→B in data set [2] was 16.4 ×10⁻⁶ cm/s.
